We go through three compounds from ChEMBL document CHEMBL5380868, “Filling a nick in NIK: Extending the half-life of a NIK inhibitor through structure-based drug design” (Bioorg Med Chem Lett, 2023).

Data set [1] in a line: Hepatic clearance in cynomolgus monkey hepatocytes. It counts as ADME, cell-based, Macaca fascicularis, Hepatocyte.
Another data set relates to HEK293. Put plainly: Inhibition of Herpes simplex virus thymidine kinase in HEK293 cells assessed as maximal inhibition by Renilla luciferase based assay relative to control. It counts as cell-based. Conditions: Herpesviridae sp.
Data set [2] can be described thus: Half life in iv dosed Sprague-Dawley rat. Conditions: in vivo. Format: ADME, organism-based.
Data set [3] in a line: Oral bioavailability in Cynomolgus monkey at 1 mg/kg. As to conditions: in vivo. It counts as ADME, organism-based, Macaca fascicularis.
A short description of data set [4]: Lipophilicity, logD of the compound at pH 7.4 by shake flask method based LC-MS analysis. Format: physicochemical. Conditions: buffer.
A short description of data set [5]: Plasma clearance in iv dosed Cynomolgus monkey. Format: ADME, organism-based, Macaca fascicularis. As to conditions: in vivo.
Data set [6] in a line: Hepatic clearance in human hepatocytes. Format: ADME, cell-based, Hepatocyte.
Data set [7] in a line: Plasma clearance in iv dosed Sprague-Dawley rat. It counts as ADME, organism-based.
The nature of data set [8]: Hepatic clearance in dog hepatocytes. Format: ADME, cell-based, Canis lupus familiaris, Hepatocyte.
A short description of data set [9]: Plasma clearance in iv dosed C57BL/6J mouse. It counts as ADME, organism-based.
Data set [10] is described as follows: Hepatic clearance in rat hepatocytes. It counts as ADME, cell-based, Hepatocyte.
Data set [11] can be described thus: Unbound plasma clearance in iv dosed non-naive Beagle dog. It counts as ADME, organism-based, Canis lupus familiaris. As to conditions: in vivo.
Data set [12] has as its target Leucine-rich repeat serine/threonine-protein kinase 2 (Homo sapiens) (UniProt Q5S007). Description: Inhibition of recombinant human LRRK2 at 1 uM relative to control.
A short description of data set [13]: Unbound plasma clearance in iv dosed Sprague-Dawley rat. It counts as ADME, organism-based. As to conditions: in vivo.
Data set [14] is described as follows: Hepatic clearance in rat liver microsomes. It counts as ADME, Microsome. For orientation: Liver microsomes are vesicles of endoplasmic reticulum, rich in cytochrome P450 enzymes.
Data set [15] is described as follows: Half life in iv dosed C57BL/6J mouse. As to conditions: in vivo. It counts as ADME, organism-based.
Data set [16] in a line: Plasma clearance in iv dosed non-naive Beagle dog. Format: ADME, organism-based, Canis lupus familiaris.
Data set [17] in a line: Oral bioavailability in C57BL/6J mouse at 10 mg/kg. It counts as ADME, organism-based. Conditions: in vivo.
The nature of data set [18]: Volume of distribution in Sprague-Dawley rat. As to conditions: in vivo. It counts as ADME.
Data set [19] in a line: Hepatic clearance in mouse liver microsomes. It counts as ADME, Microsome.
The nature of data set [20]: Kinetic solubility of compound in PBS at pH 7.4. Format: physicochemical. As to conditions: read-out: Kinetic_solubility.
Data set [21] can be described thus: Volume of distribution in C57BL/6J mouse. It counts as ADME. Conditions: in vivo.
Data set [22] in a line: Half life in iv dosed non-naive Beagle dog. As to conditions: in vivo. It counts as ADME, organism-based, Canis lupus familiaris.
Data set [23] can be described thus: Volume of distribution in Cynomolgus monkey. It counts as ADME, Macaca fascicularis. Conditions: in vivo.
The target in data set [24] is T1, Mitogen-activated protein kinase kinase kinase 14 (Homo sapiens, UniProt Q99558). Put plainly: Inhibition of NIK (unknown origin) catalyzed ATP hydrolysis by fluorescence polarization method. Background: In fluorescence polarisation assays a small probe gives low polarisation when free and higher when bound to something large.
T1 sequence (Q99558 whole entry): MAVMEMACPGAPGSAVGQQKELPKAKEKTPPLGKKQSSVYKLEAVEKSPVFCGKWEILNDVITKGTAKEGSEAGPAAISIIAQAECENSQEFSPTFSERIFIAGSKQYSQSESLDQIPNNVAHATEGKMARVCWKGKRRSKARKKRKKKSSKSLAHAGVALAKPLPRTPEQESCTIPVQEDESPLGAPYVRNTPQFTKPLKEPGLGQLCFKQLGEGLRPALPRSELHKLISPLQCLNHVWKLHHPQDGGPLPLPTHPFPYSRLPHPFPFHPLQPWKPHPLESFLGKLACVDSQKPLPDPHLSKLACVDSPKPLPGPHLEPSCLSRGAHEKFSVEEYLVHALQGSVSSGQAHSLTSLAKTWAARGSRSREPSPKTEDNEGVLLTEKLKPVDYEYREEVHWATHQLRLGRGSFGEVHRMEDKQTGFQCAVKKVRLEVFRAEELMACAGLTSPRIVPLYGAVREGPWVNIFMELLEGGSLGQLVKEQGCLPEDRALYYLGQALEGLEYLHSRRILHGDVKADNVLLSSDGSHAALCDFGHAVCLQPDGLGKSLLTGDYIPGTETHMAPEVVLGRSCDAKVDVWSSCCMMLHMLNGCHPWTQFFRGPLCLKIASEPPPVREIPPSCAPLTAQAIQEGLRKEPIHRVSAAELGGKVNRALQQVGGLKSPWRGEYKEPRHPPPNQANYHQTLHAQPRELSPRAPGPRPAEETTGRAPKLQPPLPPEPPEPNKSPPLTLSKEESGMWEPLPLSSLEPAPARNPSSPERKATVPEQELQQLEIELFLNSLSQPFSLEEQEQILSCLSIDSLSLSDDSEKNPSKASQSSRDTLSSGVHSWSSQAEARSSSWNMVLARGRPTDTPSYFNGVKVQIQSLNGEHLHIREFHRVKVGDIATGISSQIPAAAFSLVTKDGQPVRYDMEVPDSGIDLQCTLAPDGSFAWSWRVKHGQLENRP
Data set [25] is described as follows: Hepatic clearance in cynomolgus monkey liver microsomes. Format: ADME, Macaca fascicularis, Microsome.
Data set [26] can be described thus: Unbound plasma clearance in iv dosed Cynomolgus monkey. Format: ADME, organism-based, Macaca fascicularis. As to conditions: in vivo.
Data set [27] addresses Serine/threonine-protein kinase D1 (Homo sapiens) (UniProt Q15139). Put plainly: Inhibition of recombinant human PKD1 at 1 uM relative to control.
The nature of data set [28]: Oral bioavailability in non-naive Beagle dog at 1 mg/kg. It counts as ADME, organism-based, Canis lupus familiaris. As to conditions: in vivo.
The nature of data set [29]: Hepatic clearance in dog liver microsomes. It counts as ADME, Canis lupus familiaris, Microsome.
A short description of data set [30]: Hepatic clearance in human liver microsomes. It counts as ADME, Microsome.
Data set [31] is described as follows: Inhibition of Herpes simplex virus thymidine kinase in HEK293 cells by Renilla luciferase based assay. Format: cell-based. Conditions: Herpesviridae sp.
Data set [32] can be described thus: Hepatic clearance in mouse hepatocytes. It counts as ADME, cell-based, Hepatocyte.
Data set [33] can be described thus: Half life in iv dosed Cynomolgus monkey. Format: ADME, organism-based, Macaca fascicularis. Conditions: in vivo.
The nature of data set [34]: Unbound plasma clearance in iv dosed C57BL/6J mouse. Format: ADME, organism-based. Conditions: in vivo.
Data set [35] in a line: Oral bioavailability in Sprague-Dawley rat at 5 mg/kg. It counts as ADME, organism-based. Conditions: in vivo.
Data set [36] addresses Mitogen-activated protein kinase kinase kinase kinase 5 (Homo sapiens) (UniProt Q9Y4K4). Description: Inhibition of recombinant human KHS1 at 1 uM relative to control.
A short description of data set [37]: Volume of distribution in non-naive Beagle dog. Format: ADME, Canis lupus familiaris. Conditions: in vivo.
Data set [38] addresses T1, Mitogen-activated protein kinase kinase kinase 14. Description: Inhibition of NIK in HUVEC cells assessed as inhibition of anti-[…]-stimulated p52 nuclear translocation. Format: cell-based.
Data set [39] has the same target. Put plainly: Inhibition of NIK in HEK-293 cells assessed as inhibition of NIK-dependent NF-kappaB response element expression by firefly luciferase reporter gene based analysis. Format: cell-based, HEK293. For orientation: A reporter such as luciferase makes a cellular process visible.
For data set [40] the target is unchanged. Put plainly: Inhibition of NIK in human primary B cell assessed as inhibition of CD40L-stimulated nuclear translocation of p52 in cell based assay.
Data set [41] in a line: Oral bioavailability in Cynomolgus monkey at 5 mg/kg. Format: ADME, organism-based, Macaca fascicularis. Conditions: in vivo.
Data set [42] can be described thus: Oral bioavailability in C57BL/6J mouse at 50 mg/kg. Format: ADME, organism-based. As to conditions: in vivo.
A short description of data set [43]: Oral bioavailability in non-naive Beagle dog at 5 mg/kg. As to conditions: in vivo. Format: ADME, organism-based, Canis lupus familiaris.

Values after ≈ are worked out from the molar mass of the structure shown.

As a reminder, the half-life is the time in which the quantity being followed falls by half. As usually defined, the bioavailability is dose-corrected exposure relative to a reference, in per cent. Broadly, the logD is lipophilicity at a set pH, counting ionised and neutral species. As usually defined, the clearance is the volume of plasma or blood freed of the substance per unit of time. A word on the inhibition: it is how much of the control response was suppressed. By Vd is commonly meant a proportionality between amount in the body and measured concentration, not a real space. The term IC50 denotes the concentration that gives 50% inhibition.

Sequence of Leucine-rich repeat serine/threonine-protein kinase 2 (Homo sapiens) (Q5S007 whole entry): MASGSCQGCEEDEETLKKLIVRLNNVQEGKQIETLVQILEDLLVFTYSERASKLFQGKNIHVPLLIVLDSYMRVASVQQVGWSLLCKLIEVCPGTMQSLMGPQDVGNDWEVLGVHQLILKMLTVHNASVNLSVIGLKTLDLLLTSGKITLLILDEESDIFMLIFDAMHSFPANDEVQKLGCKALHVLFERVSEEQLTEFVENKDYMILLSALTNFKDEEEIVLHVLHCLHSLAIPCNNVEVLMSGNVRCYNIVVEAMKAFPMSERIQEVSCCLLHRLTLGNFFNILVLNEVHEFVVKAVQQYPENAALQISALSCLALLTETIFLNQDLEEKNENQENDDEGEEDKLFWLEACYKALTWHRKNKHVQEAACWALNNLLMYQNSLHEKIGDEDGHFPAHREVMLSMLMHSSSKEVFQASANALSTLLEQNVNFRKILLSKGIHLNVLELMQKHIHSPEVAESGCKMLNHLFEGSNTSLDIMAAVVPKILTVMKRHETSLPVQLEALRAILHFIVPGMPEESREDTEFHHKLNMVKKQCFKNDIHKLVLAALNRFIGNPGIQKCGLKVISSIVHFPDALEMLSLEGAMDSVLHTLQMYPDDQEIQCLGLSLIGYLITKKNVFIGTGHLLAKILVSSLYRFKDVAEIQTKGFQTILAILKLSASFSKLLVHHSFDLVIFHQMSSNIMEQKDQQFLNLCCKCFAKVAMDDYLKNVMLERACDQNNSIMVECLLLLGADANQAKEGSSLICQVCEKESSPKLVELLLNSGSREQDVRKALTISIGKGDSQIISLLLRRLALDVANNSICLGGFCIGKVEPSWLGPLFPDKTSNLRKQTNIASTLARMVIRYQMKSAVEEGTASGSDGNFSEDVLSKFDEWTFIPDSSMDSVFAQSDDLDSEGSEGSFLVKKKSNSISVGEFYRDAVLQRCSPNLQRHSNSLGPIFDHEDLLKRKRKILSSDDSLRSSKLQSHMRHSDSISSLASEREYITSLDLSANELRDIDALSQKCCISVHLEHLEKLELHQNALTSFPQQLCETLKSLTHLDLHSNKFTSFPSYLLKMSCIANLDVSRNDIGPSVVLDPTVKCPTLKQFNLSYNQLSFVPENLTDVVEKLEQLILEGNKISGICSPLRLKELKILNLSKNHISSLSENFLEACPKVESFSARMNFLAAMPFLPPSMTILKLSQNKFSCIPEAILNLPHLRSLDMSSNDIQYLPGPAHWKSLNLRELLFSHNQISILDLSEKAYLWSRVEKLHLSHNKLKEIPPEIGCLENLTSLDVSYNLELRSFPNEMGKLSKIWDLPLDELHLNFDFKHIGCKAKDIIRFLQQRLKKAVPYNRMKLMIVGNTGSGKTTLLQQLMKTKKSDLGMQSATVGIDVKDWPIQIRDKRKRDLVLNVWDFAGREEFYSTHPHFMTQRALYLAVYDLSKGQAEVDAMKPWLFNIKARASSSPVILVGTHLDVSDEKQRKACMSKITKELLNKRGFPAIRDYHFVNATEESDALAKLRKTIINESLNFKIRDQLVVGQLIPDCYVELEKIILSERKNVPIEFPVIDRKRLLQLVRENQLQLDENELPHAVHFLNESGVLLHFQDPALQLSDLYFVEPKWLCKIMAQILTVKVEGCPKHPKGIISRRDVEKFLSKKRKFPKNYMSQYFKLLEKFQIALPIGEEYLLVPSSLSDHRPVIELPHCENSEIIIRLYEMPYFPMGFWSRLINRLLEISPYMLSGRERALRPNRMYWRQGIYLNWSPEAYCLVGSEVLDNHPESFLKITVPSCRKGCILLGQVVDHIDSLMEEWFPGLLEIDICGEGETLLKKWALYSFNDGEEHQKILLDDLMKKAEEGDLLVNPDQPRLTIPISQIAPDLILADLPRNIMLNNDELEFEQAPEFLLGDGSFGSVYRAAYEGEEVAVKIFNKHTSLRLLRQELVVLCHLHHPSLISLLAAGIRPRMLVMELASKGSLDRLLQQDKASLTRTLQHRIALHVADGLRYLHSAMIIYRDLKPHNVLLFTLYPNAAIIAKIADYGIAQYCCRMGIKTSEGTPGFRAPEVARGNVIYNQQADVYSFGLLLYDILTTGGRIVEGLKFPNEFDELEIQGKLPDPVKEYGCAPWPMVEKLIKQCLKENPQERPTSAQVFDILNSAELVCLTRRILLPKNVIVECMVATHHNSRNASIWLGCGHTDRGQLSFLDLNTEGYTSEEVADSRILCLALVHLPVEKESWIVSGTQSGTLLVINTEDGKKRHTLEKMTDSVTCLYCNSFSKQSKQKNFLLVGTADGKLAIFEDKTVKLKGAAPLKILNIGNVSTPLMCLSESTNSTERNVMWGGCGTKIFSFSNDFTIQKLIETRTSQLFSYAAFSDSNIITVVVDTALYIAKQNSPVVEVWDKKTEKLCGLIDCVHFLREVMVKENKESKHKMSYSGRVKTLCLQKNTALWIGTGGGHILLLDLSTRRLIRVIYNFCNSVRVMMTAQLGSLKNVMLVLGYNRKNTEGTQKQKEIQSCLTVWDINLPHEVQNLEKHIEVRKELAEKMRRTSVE
Sequence of Mitogen-activated protein kinase kinase kinase kinase 5 (Homo sapiens) (Q9Y4K4 whole entry, looked up): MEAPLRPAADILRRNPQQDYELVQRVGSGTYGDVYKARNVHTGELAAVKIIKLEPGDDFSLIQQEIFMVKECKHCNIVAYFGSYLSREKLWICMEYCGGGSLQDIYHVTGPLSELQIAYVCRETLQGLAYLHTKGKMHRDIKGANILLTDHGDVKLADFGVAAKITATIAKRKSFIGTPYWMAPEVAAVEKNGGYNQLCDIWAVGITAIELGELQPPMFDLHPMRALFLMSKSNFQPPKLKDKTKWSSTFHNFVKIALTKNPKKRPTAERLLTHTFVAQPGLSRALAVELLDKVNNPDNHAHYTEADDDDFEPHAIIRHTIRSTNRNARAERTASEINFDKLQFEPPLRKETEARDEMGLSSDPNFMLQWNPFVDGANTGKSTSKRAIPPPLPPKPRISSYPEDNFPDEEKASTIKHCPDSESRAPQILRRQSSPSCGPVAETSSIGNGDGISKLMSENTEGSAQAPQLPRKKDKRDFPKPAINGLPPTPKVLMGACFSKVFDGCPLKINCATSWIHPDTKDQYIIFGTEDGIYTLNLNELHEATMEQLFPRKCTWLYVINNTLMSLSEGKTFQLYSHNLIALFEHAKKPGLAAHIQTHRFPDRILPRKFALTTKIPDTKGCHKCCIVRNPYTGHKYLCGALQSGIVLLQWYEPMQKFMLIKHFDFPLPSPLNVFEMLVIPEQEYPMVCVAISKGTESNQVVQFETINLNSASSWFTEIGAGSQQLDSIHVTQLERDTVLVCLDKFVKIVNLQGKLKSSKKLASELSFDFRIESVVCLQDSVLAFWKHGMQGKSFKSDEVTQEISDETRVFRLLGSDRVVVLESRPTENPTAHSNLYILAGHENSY

In data set [1], `CN1C(=O)[C@](O)(C#Cc2cccc(-n3nc(C(N)=O)c4cccnc43)c2)[C@H]2C[C@H]21` came in with a CLH of less than 8.8 mL/min/kg. Also, in the data set on HEK293, the Imax was 6%. In addition, the half-life is 42 min in [2], 90 min in [15], 288 min in data set [22] and 294 min in data set [33]. Also, the bioavailability is 65% in data set [3], 49% in [17], 78% in data set [28] and greater than 100% in data set [35]. This compound had a logD in [4] of 1.8. Besides, the clearance in [5] worked out at 6.7 mL/min/kg; in data set [7], 42 mL/min/kg; in [9] it was 11 mL/min/kg; in [16] it was 7.1 mL/min/kg. Besides, the CLhep predicted is less than 6.2 mL/min/kg in data set [6]; less than 7.8 mL/min/kg in data set [8]; less than 10 mL/min/kg in data set [10]; 18 mL/min/kg in data set [14]; 29 mL/min/kg in [19]; 15 mL/min/kg in data set [25]. For the same compound, the CLhep predicted is 14 mL/min/kg in data set [29], 5.8 mL/min/kg in data set [30] and less than 21 mL/min/kg in data set [32]. Also, the CL free came out at 68 mL/min/kg in data set [11], 656 mL/min/kg in data set [13], 95 mL/min/kg in [26] and 367 mL/min/kg in data set [34]. Moreover, the inhibition stood at 6% in data set [12], 79% in data set [27] and 89% in data set [36]. The Vd was 2.6 L/kg in [18], 1.1 L/kg in data set [21], 2 L/kg in [23] and 1.2 L/kg in [37]. The solubility kinetic in data set [20] is 92 µM (≈ 35.6 µg/mL). The IC50 is 2 nM in [24]; greater than 2000 nM in data set [31]; 55 nM in data set [38]; 53 nM in data set [39]; 330 nM in data set [40].

With `CN1CC[C@@](O)(C#Cc2cccc(-n3nc(C(N)=O)c4cccnc43)c2)C1=O`, in the data set with HEK293, the Imax stood at 7%. For the same compound, the bioavailability in data set [41] was greater than 100%; in data set [42], 72%; in data set [35], 62%; in data set [43], 44%. Moreover, the inhibition in data set [12] was determined as 59%. Also, the Vd was determined as 2.9 L/kg in data set [18], 0.5 L/kg in data set [21], 1.1 L/kg in data set [23] and 0.8 L/kg in data set [37]. For the same compound, the solubility kinetic in data set [20] was 122 µM (≈ 45.8 µg/mL). The same compound had an IC50 in [31] greater than 2000 nM.

For the compound `COc1cc(C(N)=O)nc(-c2cccc(C#C[C@]3(O)CCN(C)C3=O)c2)c1`, the inhibition in [12] came to 82%.
